Results from US11566260B2, “Potentiating agents for protecting plants from fungal infections” (UNIVERSITE D'ANGERS, priority 2012, dated 2023).

Tests used:
[1] = tested on: Alternaria dauci; assay: Growth inhibition of Alternaria dauci (protocol of Example 1), non-fungicidal amount; format: cell-based
Protocol: Suspensions of fungal conidia (starting material being for example 10^5 conidia/mL) are cultured in liquid medium, such as, for example, 300 μL of PBD medium, on microplate wells at 25° C. with shaking at 175 rpm for 5 minutes every 10 minutes. Increasing concentrations of the tested product are added on wells, and fungal growth is measured, during at least 5 hours, preferably at least 10, 20, 30 hours. Methods for measuring fungal growth are well known from the skilled artisan. […] Growth inhibition is measured by comparing the Area Under Curves (AUC) of treated samples and of untreated controls. […]
(§1) For inoculum preparation, conidia were collected from 8-days-old solid cultures by adding PD broth followed by gentle scraping of the agar plates. They were counted in a Thoma's chamber and the conidial suspensions were diluted to the concentration of 10^5 conidia/mL.
Growth was automatically recorded for at least 30 hours at 25° C. using a nephelometric reader (NEPHELOstar Galaxy, BMG Labtech, Germany) equipped with a 635-nm laser as radiation source. […] Each well was measured for 0.1 second with a laser beam of 2.5 mm.
The non-fungicidal amount of the sanguinarine contained in M. cordata extract against A. dauci strain was determined as 12 μM or 4 ppm according to the protocol described in Example 1. […]

[2] = tested on: S. cerevisiae strain overexpressing Alternaria brassicicola Pkc1; assay: Test C: growth of S. cerevisiae strain overexpressing Alternaria brassicicola Pkc1 (pYES-PKC); format: cell-based, Saccharomyces cerevisiae; conditions: pYES2-PKC; for Area under the curve: inducing medium, OD 600 nm
Protocol: (§2) Test C is based on the essential role of Pkc1 in fungal cells: if its essential function is inhibited, the growth of the fungal cells will be affected. Therefore, in Test C, two different strains of S. cerevisiae are cultured in the presence of the tested compound: the first one is a wild-type strain, whereas the second overexpresses the fungal Pkc1 gene. If the tested compound is an inhibitor of the fungal Pkc1 protein, the growth of the wild-type strain will be inhibited, whereas the induction of the overexpression of the heterologous fungal Pkc1 gene will restore, at least partially, the growth rate. Test C is carried out in Example 3.
Construction of a S. cerevisiae strain overexpressing Alternaria brassicicola Pkc1 The cDNA encoding the Pkc1 gene of Alternaria brassicicola (http://genome.jgi-psf.org/Altbr1/Altbr1.home.html; sequence ref: AB07449.1) was amplified by PCR and cloned into a pYES2-CT vector (Invitrogen, Paisley, UK). The resulting vector (pYES-PKC) was inserted in a BY4743 strain of Saccharomyces cerevisiae.
(§3) Growth of this strain was monitored in an inducing medium (GS uracil-free medium supplemented with galactose) in presence of increasing concentrations of chelerythrin (0, 25, 50 or 75 μM), and was compared with the growth of a control strain (BY4743 strain transformed with the empty pYES2-CT vector). Growth was measured by spectrometry (Optic density: 600 nm). Inhibition of growth was assessed by comparison of the area under the curves.

[3] = tested on: Alternaria brassicicola; assay: Test A: growth of Alternaria brassicicola conidia followed by nephelometry, to find the non-fungicidal amount; format: cell-based
Protocol: (§4) Suspensions of fungal conidia (starting material being for example 10^5 conidia/mL) are cultured in liquid medium, such as, for example, 300 μL of PBD medium, on microplate wells at 25° C. with shaking at 175 rpm for 5 minutes every 10 minutes. Increasing concentrations of the tested product are added on wells, and fungal growth is measured, during at least 5 hours, preferably at least 10, 20, 30 hours. Methods for measuring fungal growth are well known from the skilled artisan. Examples of such methods include, but are not limited to, photometry, such as, for example, spectrophotometric methods; or nephelometry, such as, for example, laser nephelometry as described in Joubert et al (Biotechniques, 2010, 48:399-404). Growth inhibition is measured by comparing the Area Under Curves (AUC) of treated samples and of untreated controls. Test A is carried out in Example 1.
Alternaria brassicicola strains were cultivated at 24° C. on potato dextrose (PD) medium (Cat. No. 213200; Becton Dickinson, USA).
as §1
Growth was automatically recorded for at least 30 hours at 25° C. using a nephelometric reader (NEPHELOstar Galaxy, BMG Labtech, Germany) equipped with a 635-nm laser as radiation source. During incubation, the 96-well plates were subjected to shaking at 175 rpm for 5 minutes every 10 minutes. Measurements were done every hour with a gain value of 90 and a percentage of the maximum value of 20%. Each well was measured for 0.1 second with a laser beam of 2.5 mm.
Chelerythrin (25 μM or 50 μM, test wells) or 10 μL of DMSO (chelerythrin solvent, control wells) were added on wells, and growth curves were drawn (FIG. 1).
Camalexin (10, 20, 40 or 60 μM, test wells) or 10 μL of DMSO (chelerythrin solvent, control wells) were added on wells, and growth curves were drawn (FIG. 2).

[4] = tested on: Alternaria brassicicola; assay: In vivo efficacy on cabbage leaves inoculated with Alternaria brassicicola; conditions: 25 μM chelerythrin in inoculum; intact or prewounded B. oleracea cv Bartolo leaves; 6 dpi; vs DMSO side
Protocol: Example 2 discloses a protocol for determining the in vivo efficacy of the composition of the invention, comprising a potentiating amount of chelerythrin (25 μM), as determined in Example 1.
5 μL drops of Alternaria brassicicola conidia suspension (10^5 to 10^3 conidia/mL) were inoculated on intact or prewounded (i.e wherein the synthesis of plant defense molecules such as Brassinin was naturally triggered by the aggression) leaves of B. oleracea cv Bartolo plants at stages 4-6 leaves per plant. Inocula were deposited on the left and right sides symmetrically from the central vein: inocula comprising 25 μM of chelerythrin were deposited on the right side, and inocula comprising DMSO were deposited on the left side. The plants were then maintained under saturing humidity (100% relative humidity).

[5] = tested on: BY4743 strain transformed with the empty pYES2-CT vector; assay: Test C: growth of S. cerevisiae control strain (empty pYES2-CT vector); format: cell-based, Saccharomyces cerevisiae; conditions: for Area under the curve: OD 600 nm
Protocol: as §2, §3

[6] = tested on: Alternaria brassicicola; assay: Test B: potentiating effect with a plant defense molecule on growth of Alternaria brassicicola; format: cell-based
Protocol: as §4, with “Test B: • 1) Determining a non-fungicidal amount of said agent, preferably according to Test A; • 2) Determining a non-fungicidal amount of a plant defense molecule, preferably according to Test A; • 3) Measuring growth of fungal conidia in a medium comprising a combination of a non-fungicidal amount of the agent, as determined in step 1, and a non-fungicidal amount of the plant defense molecule, as determined in step 2. In one embodiment, the growth is measured as follows: Suspensions” for “Suspensions”, “material:” for “material being for example”, “Non-fungicidal” for “Increasing”, “agent and of the tested plant defense molecule” for “product”, “measured” for “measured,”, “controls.” for “controls. Test A is carried out in Example 1.”
The potentiating effect of chelerythrin is measured in a suspension of conidia treated with a plant defense molecule, camalexin, which is present at a non-fungicidal amount as determined hereinabove. Said non-fungicidal amount is consistent with the amount of camalexin produced by an infected plant organ.
Alternaria brassicicola growth was measured as described hereinabove.
A non-fungicidal amount of chelerythrin (as determined in Example 1a) and/or a non-fungicidal amount of camalexin (as determined in Example 1b) or 10 μL of DMSO are added per well, and growth curves were drawn (FIG. 3).
In the Table 5 below are shown compounds (column 1) having a potentiating effect of a plant defense molecule (column 2) for the inhibition of a pathogenic fungus (column 3). The type of the potentiating agent in this particular situation is given in column 4 (homologous or heterologous). Triads were identified according to Test B.

[7] = tested on: BY4743 strain of Saccharomyces cerevisiae; assay: Test D: growth of S. cerevisiae BY4743 in normal and high osmotic pressure conditions; format: cell-based
Protocol: Test D is based on the fact that the protein Pkc1 is implied in the CWI pathway. In a situation where the CWI pathway is impaired, growth of fungal cells is less affected by a high osmotic pressure. Consequently, in Test D, a S. cerevisiae strain is cultured in conditions of high osmotic pressure, in the presence or in absence of the tested compound. If said compound is a Pkc1 inhibitor, it will inhibit the growth of cells in normal osmotic pressure conditions, but not, or less, in high osmotic pressure conditions. Test D is carried out in Example 3.
The growth of a BY4743 strain of Saccharomyces cerevisiae on a liquid SD medium comprising increasing concentrations of chelerythrin (0, 10, 15, 20 or 25 μM) was monitored and compared to the growth of the same strain on a liquid SD medium containing 1M of sorbitol (high osmotic pressure conditions) in presence of increasing concentrations of chelerythrin.
Growth was measured by spectrometry (optic density: 600 nm) Inhibition of growth was assessed by comparison of the area under the curves.

[8] = tested on: Botrytis cinerea; assay: Test B: potentiating effect with a plant defense molecule on Botrytis cinerea; format: cell-based
Protocol: as §4, with “Test B: • 1) Determining a non-fungicidal amount of said agent, preferably according to Test A; • 2) Determining a non-fungicidal amount of a plant defense molecule, preferably according to Test A; • 3) Measuring growth of fungal conidia in a medium comprising a combination of a non-fungicidal amount of the agent, as determined in step 1, and a non-fungicidal amount of the plant defense molecule, as determined in step 2. In one embodiment, the growth is measured as follows: Suspensions” for “Suspensions”, “material:” for “material being for example”, “Non-fungicidal” for “Increasing”, “agent and of the tested plant defense molecule” for “product”, “measured” for “measured,”, “Test A is carried out in Example 1.” left out

[9] = tested on: Alternaria dauci; assay: Test B: potentiating effect with a plant defense molecule on growth of Alternaria dauci; format: cell-based; conditions: plant defense molecule 6-methoxymellein
Protocol: Test B: • 1) Determining a non-fungicidal amount of said agent, preferably according to Test A; • 2) Determining a non-fungicidal amount of a plant defense molecule, preferably according to Test A; • 3) Measuring growth of fungal conidia in a medium comprising a combination of a non-fungicidal amount of the agent, as determined in step 1, and a non-fungicidal amount of the plant defense molecule, as determined in step 2. In one embodiment, the growth is measured as follows: Suspensions of fungal conidia (starting material: 10^5 conidia/mL) are cultured in liquid medium, such as, for example, 300 μL of PBD medium, on microplate wells at 25° C. with shaking at 175 rpm for 5 minutes every 10 minutes. Non-fungicidal concentrations of the tested agent and of the tested plant defense molecule are added on wells, and fungal growth is measured during at least 5 hours, preferably at least 10, 20, 30 hours. Methods for measuring fungal growth are well known from the skilled artisan. […] Growth inhibition is measured by comparing the Area Under Curves (AUC) of treated samples and of untreated controls. […]
Following the aforementioned growth inhibition protocol, the following treatments are assessed: • 6-methoxymellein 125 μM, • 6-methoxymellein 100 μM, • 6-methoxymellein 125 μM and M. cordata extract (10 μM of Sanguinarine), • 6-methoxymellein 100 μM and M. cordata extract (10 μM of Sanguinarine).

[10] = plant defense molecule Brassinin, Alternaria brassicicola

COc1cc(O)c2c(c1)C[C@@H](C)OC2=O [6-methoxymellein]
growth inhibition of Alternaria dauci ([1]; 6-methoxymellein 100 μM): did not inhibit
growth inhibition of Alternaria dauci ([1]; 6-methoxymellein 125 μM): did not inhibit

COc1ccc2c(c[n+](C)c3c4cc5c(cc4ccc23)OCO5)c1OC [Chelerythrin]
inhibition at 25 µM ([2]; 25 μM chelerythrin): 15%
Area under the curve ([2]; 25 μM chelerythrin): 10.7
inhibition at 50 µM ([2]; 50 μM chelerythrin): 25%
Area under the curve ([2]; 50 μM chelerythrin): 9.4
inhibition at 75 µM ([2]; 75 μM chelerythrin): 30%
Area under the curve ([2]; 75 μM chelerythrin): 8.8
Alternaria brassicicola growth inhibition ([3]; 25 μM chelerythrin, nephelometry, at least 30 hours, 25° C., vs DMSO control): does not inhibit
non-fungicidal amount ([3]; Alternaria brassicicola, in vitro): 25 µM
fungal infection of cabbage leafs [4]: limits in vivo the fungal infection
Area under the curve ([5]; 25 μM chelerythrin): 8.6
Area under the curve ([5]; 50 μM chelerythrin): 3.2
Area under the curve ([5]; 75 μM chelerythrin): 2.5
inhibition at 25 µM ([5]; Saccharomyces cerevisiae, 25 μM chelerythrin): 43%
inhibition at 50 µM ([5]; Saccharomyces cerevisiae, 50 μM chelerythrin): 79%
inhibition at 75 µM ([5]; Saccharomyces cerevisiae, 75 μM chelerythrin): 84%
inhibition of Alternaria brassicicola growth by the combination ([6]; 25 μM chelerythrin combined with 10 μM camalexin, both non-fungicidal amounts): drastic inhibition
Type of potentiating agent (compound having a potentiating effect of the plant defense molecule) [6, 10]: Homologous
Type of potentiating agent (compound having a potentiating effect of the plant defense molecule) ([6]; plant defense molecule Camalexin, Alternaria brassicicola): Homologous
potentiating amount ([6]; with non-fungicidal amount of camalexin, Alternaria brassicicola): 25 µM
Area under the curve ([7]; SD + Sorbitol (1M, high osmotic pressure), 10 μM chelerythrin): 5.2
Area under the curve ([7]; SD + Sorbitol (1M, high osmotic pressure), 15 μM chelerythrin): 5.0
Area under the curve ([7]; SD + Sorbitol (1M, high osmotic pressure), 20 μM chelerythrin): 2.0
Area under the curve ([7]; SD medium, 10 μM chelerythrin): 14.3
Area under the curve ([7]; SD medium, 15 μM chelerythrin): 11.8
Area under the curve ([7]; SD medium, 20 μM chelerythrin): 10.4
Area under the curve ([7]; SD medium, 25 μM chelerythrin): 8.1
inhibition at 10 µM ([7]; Saccharomyces cerevisiae, SD + Sorbitol (1M, high osmotic pressure), 10 μM chelerythrin): -3%
inhibition at 15 µM ([7]; Saccharomyces cerevisiae, SD + Sorbitol (1M, high osmotic pressure), 15 μM chelerythrin): 1%
inhibition at 20 µM ([7]; Saccharomyces cerevisiae, SD + Sorbitol (1M, high osmotic pressure), 20 μM chelerythrin): 0%
inhibition at 10 µM ([7]; Saccharomyces cerevisiae, SD medium, 10 μM chelerythrin): 10%
inhibition at 15 µM ([7]; Saccharomyces cerevisiae, SD medium, 15 μM chelerythrin): 26%
inhibition at 20 µM ([7]; Saccharomyces cerevisiae, SD medium, 20 μM chelerythrin): 35%
inhibition at 25 µM ([7]; Saccharomyces cerevisiae, SD medium, 25 μM chelerythrin): 49%

CCOc1cc2c3cc(OC)c(OC)cc3cnc2c2cc(OC)c(OC)cc12 [Compound 1]
Type of potentiating agent (compound having a potentiating effect of the plant defense molecule) ([6]; plant defense molecule Resveratrol, Alternaria brassicicola): Heterologous

CCOc1cc2c3cc(OC)c(OC)cc3c[n+](C)c2c2cc(OC)c(OC)cc12 [Compound 2]
Type of potentiating agent (compound having a potentiating effect of the plant defense molecule) ([8]; plant defense molecule Brassinin): Homologous
Type of potentiating agent (compound having a potentiating effect of the plant defense molecule) ([8]; plant defense molecule Camalexin): Homologous
Type of potentiating agent (compound having a potentiating effect of the plant defense molecule) [6, 10]: Homologous
Type of potentiating agent (compound having a potentiating effect of the plant defense molecule) [9]: Homologous
